Data from patent publication US11208376B2, “Use of a metal supplement in animal feed” (Nouryon Chemicals International B.V., priority 2009, dated 2021).
Marks after values point to notes of the source that are not given here. Blank lines part the entries; values can stand above or below the compound they belong to.

Experiments:
[1] = Precipitation test of zinc sources with two-fold molar excess of phytic acid, soluble Zn by FAAS; type: physicochemical; conditions: for Soluble Zn(II) after subjecting complexed or chelated Zn(II) to a two-fold molar excess of phytic acid: one day at ambient temperature
Experimental: (§1) The following 3 concentrations of the final metal concentration were tested, i.e. high (H) at 25 mmol/kg, medium (M) at 5 mmol/kg, and low (L) at 0.5 mmol/kg. For each concentration and pH a separate phytic acid stock solution was prepared by diluting the calculated amount of phytic acid with de-mineralized water, setting the pH with diluted NH4OH solutions, and filling up with demineralized water up to the calculated amount. […] The pH was not adjusted any further. Then an equal number of 0.0125 mol/kg solutions were prepared by diluting the above solutions with demineralized water. […] On all 4 zinc-containing and 3 copper-containing solutions in total 6 precipitation tests were carried out, i.e. at levels H, M, and L and for each level at pH=4 and at pH=6. These tests were marked H4, H6, M4, M6, L4, and L6, respectively. In total 42 samples were obtained in this way. After standing for one day the precipitate was removed and the mother liquor was analyzed for its zinc or copper content by FAAS (Flame Atomic Absorption Spectroscopy). […] The total weight was exactly determined again. The 50 ml test tubes were filled according to Table 1 below.

[2] = without the presence of phytate; result in words
Experimental: A small excess of 2% of the complexing or chelating agent intake was used to prepare the metal-containing solutions. This ensures a complete complexation or chelation of the metal ions. The mixture was dissolved in part of the demineralized water. The pH was adjusted in order to reach a pH value between approximately 4 and 5. All solutions were filled up with demineralized water to 400 g.

[3] = Precipitation test of copper sources with two-fold molar excess of phytic acid, soluble Cu by FAAS; type: physicochemical; conditions: one day at ambient temperature
Experimental: as §1, with “was” for “was not”, “to 4.97 with 0.5 M H2SO4.” for “any further.”

[4] = H4: pH 4, metal 25 mmol/kg, phytic acid 50 mmol/kg
[5] = H6: pH 6, metal 25 mmol/kg, phytic acid 50 mmol/kg
[6] = L4: pH 4, metal 0.5 mmol/kg, phytic acid 1 mmol/kg
[7] = L6: pH 6, metal 0.5 mmol/kg, phytic acid 1 mmol/kg
[8] = M4: pH 4, metal 5 mmol/kg, phytic acid 10 mmol/kg
[9] = M6: pH 6, metal 5 mmol/kg, phytic acid 10 mmol/kg

SMILES: CSCC[C@H](N)C(=O)[O-].CSCC[C@H](N)C(=O)[O-].[Zn+2] [Zn(Methionine)2]
- Soluble Zn(II) after subjecting complexed or chelated Zn(II) to a two-fold molar excess of phytic acid [1, 4]: 21* % (mol/mol)
- Soluble Zn(II) after subjecting complexed or chelated Zn(II) to a two-fold molar excess of phytic acid [1, 5]: 32* % (mol/mol)
- Soluble Zn(II) after subjecting complexed or chelated Zn(II) to a two-fold molar excess of phytic acid [1, 6]: 99 % (mol/mol)
- Soluble Zn(II) after subjecting complexed or chelated Zn(II) to a two-fold molar excess of phytic acid [1, 7]: 63 % (mol/mol)
- Soluble Zn(II) after subjecting complexed or chelated Zn(II) to a two-fold molar excess of phytic acid [1, 8]: 55* % (mol/mol)
- Soluble Zn(II) after subjecting complexed or chelated Zn(II) to a two-fold molar excess of phytic acid [1, 9]: 13* % (mol/mol)
- Appearance (clear solution or precipitate) of zinc source combined with phytic acid ([1]; levels H, M, L, result in words): immediately a precipitate was formed

SMILES: CSCC[C@H](N)C(=O)O.[Cu] [copper methionine]
- Solubility in water [2]: insoluble in water

- Soluble Cu(II) after subjecting complexed or chelated Cu(II) to a two-fold molar excess of phytic acid [3, 4]: 64* % (mol/mol)
- Soluble Cu(II) after subjecting complexed or chelated Cu(II) to a two-fold molar excess of phytic acid [3, 5]: 26* % (mol/mol)
- Soluble Cu(II) after subjecting complexed or chelated Cu(II) to a two-fold molar excess of phytic acid [3, 6]: 97 % (mol/mol)
- Soluble Cu(II) after subjecting complexed or chelated Cu(II) to a two-fold molar excess of phytic acid [3, 7]: 80 % (mol/mol)
- Soluble Cu(II) after subjecting complexed or chelated Cu(II) to a two-fold molar excess of phytic acid [3, 8]: 97* % (mol/mol)
- Soluble Cu(II) after subjecting complexed or chelated Cu(II) to a two-fold molar excess of phytic acid [3, 9]: 36* % (mol/mol)
SMILES: O=S(=O)([O-])[O-].[Cu+2] [CuSO4]
